Target: Lpg2936 (Legionella pneumophila, UniProt Q5ZRE6)
Experiment: biochemical

Sequence of Lpg2936 (Q5ZRE6 1-244 limits assumed): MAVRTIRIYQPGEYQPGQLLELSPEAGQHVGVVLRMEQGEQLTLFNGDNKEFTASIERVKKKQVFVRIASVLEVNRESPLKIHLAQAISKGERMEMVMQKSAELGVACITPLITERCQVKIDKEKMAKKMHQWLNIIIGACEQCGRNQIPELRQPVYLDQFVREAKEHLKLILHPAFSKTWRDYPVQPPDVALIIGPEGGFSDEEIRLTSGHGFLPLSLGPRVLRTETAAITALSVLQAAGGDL

C[S+](CC[C@H](N)C(=O)O)C[C@H]1O[C@@H](n2cnc3c(N)ncnc32)[C@H](O)[C@@H]1O (stereo partly shown) [S‐adenosyl‐L‐methionine] gave a Kd of 12 nM.
